Consider eleven compounds from ChEMBL document CHEMBL3991601, “The target landscape of clinical kinase drugs” (Science, 2017).

Assay [1] concerns the target T1, Cytochrome c1, heme protein, mitochondrial (Homo sapiens, UniProt P08574).
T1 sequence (P08574 whole entry): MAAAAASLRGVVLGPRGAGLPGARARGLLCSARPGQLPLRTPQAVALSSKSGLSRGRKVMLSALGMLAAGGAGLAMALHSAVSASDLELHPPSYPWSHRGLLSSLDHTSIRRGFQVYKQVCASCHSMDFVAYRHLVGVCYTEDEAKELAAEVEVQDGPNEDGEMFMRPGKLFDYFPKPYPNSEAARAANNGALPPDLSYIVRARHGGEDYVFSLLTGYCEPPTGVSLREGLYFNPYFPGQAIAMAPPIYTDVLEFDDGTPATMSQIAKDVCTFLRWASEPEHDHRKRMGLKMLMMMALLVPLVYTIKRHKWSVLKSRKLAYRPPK

Assay [2] addresses Tyrosine-protein kinase Yes (Homo sapiens, UniProt P07947).
Assay [3] addresses Tyrosine-protein kinase CSK (Homo sapiens, UniProt P41240).
Assay [4] deals with Bone morphogenetic protein receptor type-1A (Homo sapiens, UniProt P36894).
For assay [5], the target named is S-adenosylmethionine synthase isoform type-2 (Homo sapiens, UniProt P31153).
The target of assay [6] is T2, Serine/threonine-protein kinase LATS1 (Homo sapiens, UniProt O95835).
T2 sequence (O95835 whole entry): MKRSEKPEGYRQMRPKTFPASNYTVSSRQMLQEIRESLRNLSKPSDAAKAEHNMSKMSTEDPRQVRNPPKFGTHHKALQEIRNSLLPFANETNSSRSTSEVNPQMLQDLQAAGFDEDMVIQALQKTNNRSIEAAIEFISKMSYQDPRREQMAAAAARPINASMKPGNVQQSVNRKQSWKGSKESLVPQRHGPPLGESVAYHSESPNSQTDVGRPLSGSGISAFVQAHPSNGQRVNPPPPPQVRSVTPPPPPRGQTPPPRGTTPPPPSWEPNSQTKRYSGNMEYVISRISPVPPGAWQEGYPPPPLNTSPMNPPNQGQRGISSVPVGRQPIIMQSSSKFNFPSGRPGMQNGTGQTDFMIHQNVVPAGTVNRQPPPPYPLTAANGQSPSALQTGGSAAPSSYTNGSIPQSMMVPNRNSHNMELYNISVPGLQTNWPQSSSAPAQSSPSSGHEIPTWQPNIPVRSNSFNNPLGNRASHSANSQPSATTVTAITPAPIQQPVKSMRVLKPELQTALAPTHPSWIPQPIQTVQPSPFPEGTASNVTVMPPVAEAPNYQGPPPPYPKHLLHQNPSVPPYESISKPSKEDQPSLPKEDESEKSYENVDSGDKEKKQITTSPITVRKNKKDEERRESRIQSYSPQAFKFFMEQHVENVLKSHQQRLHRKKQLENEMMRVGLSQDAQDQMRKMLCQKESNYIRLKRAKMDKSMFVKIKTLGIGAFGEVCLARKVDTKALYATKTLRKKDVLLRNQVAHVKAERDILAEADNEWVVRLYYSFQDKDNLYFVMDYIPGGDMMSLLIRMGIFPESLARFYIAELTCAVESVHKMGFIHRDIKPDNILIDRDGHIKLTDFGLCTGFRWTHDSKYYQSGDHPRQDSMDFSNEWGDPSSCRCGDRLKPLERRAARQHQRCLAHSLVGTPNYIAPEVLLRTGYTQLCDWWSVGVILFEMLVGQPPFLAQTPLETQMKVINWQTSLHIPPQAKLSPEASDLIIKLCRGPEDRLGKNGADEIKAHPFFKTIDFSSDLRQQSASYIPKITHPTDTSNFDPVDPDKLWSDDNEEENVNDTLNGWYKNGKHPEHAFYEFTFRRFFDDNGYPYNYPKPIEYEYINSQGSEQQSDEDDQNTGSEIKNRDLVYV

Assay [7] addresses Tyrosine-protein kinase Fyn (Homo sapiens, UniProt P06241).
The target in a further assay is T3, Scaffold protein ILK (Homo sapiens, UniProt Q13418).
T3 sequence (Q13418 whole entry): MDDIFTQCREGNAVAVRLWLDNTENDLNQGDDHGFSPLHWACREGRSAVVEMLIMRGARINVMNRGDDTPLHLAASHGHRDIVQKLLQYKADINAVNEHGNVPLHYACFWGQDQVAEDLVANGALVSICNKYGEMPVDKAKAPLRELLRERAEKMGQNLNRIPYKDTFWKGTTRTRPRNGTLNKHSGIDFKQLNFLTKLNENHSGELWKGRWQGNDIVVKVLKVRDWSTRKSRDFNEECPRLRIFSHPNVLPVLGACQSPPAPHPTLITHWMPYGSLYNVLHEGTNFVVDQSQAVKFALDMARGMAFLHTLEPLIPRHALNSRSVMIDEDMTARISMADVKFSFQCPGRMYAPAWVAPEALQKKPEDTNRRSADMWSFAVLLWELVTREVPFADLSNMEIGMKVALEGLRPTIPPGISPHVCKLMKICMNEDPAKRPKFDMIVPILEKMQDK

For assay [8], the target named is Tyrosine-protein kinase ABL2 (Homo sapiens, UniProt P42684).
Another assay deals with T4, ADP/ATP translocase 2 (Homo sapiens, UniProt P05141).
T4 sequence (P05141 whole entry): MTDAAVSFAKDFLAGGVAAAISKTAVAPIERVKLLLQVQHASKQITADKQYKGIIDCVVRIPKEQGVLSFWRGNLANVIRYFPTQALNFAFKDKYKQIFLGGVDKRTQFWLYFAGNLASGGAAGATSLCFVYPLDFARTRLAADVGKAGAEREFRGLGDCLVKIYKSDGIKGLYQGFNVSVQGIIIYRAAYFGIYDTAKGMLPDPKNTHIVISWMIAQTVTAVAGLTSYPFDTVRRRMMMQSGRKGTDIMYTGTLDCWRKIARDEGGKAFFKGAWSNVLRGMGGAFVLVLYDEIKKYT

Activity calls are given as the source filed them.
Also: in the data inactive means no Kd found up to 30 µM.

Chain of Bone morphogenetic protein receptor type-1A (P36894 whole entry, canonical isoform): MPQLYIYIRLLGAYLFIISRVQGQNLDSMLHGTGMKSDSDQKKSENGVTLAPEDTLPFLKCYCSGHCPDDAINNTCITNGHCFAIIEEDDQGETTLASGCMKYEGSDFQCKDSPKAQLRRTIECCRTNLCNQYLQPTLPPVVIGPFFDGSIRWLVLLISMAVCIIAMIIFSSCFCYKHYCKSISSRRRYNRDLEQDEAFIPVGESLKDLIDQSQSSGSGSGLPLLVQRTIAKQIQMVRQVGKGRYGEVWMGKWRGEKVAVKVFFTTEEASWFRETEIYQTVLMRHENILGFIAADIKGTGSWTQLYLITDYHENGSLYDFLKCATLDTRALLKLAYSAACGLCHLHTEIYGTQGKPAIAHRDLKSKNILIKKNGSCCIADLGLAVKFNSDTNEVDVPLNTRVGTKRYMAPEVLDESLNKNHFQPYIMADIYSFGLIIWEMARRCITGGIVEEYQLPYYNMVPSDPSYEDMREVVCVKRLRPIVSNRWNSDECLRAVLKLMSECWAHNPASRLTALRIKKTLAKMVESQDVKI
Chain of S-adenosylmethionine synthase isoform type-2 (P31153 whole entry, canonical isoform): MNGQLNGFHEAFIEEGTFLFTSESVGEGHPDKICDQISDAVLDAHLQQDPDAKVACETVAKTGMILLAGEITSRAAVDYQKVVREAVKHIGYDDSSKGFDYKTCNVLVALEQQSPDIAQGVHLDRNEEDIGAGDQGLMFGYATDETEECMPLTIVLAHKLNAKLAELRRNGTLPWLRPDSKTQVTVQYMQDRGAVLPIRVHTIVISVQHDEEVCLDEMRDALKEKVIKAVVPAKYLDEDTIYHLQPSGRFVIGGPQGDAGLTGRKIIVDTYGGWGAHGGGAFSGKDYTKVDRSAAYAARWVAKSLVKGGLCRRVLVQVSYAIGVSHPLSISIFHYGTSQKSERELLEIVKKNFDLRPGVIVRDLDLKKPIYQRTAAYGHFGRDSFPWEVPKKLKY
Chain of Tyrosine-protein kinase CSK (P41240 whole entry): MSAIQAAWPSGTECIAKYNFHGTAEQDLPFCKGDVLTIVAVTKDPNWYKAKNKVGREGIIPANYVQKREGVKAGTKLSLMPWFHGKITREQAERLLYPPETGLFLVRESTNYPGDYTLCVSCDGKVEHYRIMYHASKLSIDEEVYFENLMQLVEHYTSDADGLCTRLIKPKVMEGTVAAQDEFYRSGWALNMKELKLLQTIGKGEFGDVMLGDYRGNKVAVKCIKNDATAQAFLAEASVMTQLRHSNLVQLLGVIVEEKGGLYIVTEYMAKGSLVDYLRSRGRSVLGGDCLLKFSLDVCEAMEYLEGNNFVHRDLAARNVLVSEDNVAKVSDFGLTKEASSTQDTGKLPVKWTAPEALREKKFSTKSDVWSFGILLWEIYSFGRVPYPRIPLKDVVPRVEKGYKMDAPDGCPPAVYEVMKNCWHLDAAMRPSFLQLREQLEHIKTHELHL
Chain of Tyrosine-protein kinase ABL2 (P42684 whole entry): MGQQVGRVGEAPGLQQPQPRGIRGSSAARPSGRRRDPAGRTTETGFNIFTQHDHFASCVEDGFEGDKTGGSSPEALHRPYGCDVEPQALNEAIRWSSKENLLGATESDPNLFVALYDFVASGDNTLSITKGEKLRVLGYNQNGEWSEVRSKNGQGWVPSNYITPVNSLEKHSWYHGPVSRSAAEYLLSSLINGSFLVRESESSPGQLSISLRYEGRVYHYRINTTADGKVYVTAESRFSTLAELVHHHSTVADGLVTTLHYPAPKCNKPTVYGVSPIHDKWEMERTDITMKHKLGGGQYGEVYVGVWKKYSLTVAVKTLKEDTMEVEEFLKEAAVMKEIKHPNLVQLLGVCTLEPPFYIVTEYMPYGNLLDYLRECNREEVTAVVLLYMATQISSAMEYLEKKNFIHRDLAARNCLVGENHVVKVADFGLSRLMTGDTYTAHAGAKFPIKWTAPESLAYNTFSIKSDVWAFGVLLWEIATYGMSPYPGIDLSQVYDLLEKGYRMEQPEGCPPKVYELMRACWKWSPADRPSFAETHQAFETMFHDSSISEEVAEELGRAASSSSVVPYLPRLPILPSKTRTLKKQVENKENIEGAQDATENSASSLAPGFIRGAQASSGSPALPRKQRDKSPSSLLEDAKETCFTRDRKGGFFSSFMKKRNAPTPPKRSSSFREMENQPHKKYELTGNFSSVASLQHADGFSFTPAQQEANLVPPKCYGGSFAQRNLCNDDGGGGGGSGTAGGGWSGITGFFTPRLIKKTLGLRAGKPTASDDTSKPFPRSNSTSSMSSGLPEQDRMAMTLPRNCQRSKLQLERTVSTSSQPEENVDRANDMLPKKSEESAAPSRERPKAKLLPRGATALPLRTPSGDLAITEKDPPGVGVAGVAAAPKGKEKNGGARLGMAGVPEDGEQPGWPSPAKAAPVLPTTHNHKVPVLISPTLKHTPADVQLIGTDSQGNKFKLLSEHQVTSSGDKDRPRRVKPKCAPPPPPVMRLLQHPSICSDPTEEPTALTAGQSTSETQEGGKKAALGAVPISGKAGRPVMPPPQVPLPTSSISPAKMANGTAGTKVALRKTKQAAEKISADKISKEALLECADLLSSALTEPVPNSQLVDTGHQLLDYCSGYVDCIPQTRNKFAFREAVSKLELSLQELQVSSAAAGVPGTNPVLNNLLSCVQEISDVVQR
Chain of Tyrosine-protein kinase Yes (P07947 whole entry): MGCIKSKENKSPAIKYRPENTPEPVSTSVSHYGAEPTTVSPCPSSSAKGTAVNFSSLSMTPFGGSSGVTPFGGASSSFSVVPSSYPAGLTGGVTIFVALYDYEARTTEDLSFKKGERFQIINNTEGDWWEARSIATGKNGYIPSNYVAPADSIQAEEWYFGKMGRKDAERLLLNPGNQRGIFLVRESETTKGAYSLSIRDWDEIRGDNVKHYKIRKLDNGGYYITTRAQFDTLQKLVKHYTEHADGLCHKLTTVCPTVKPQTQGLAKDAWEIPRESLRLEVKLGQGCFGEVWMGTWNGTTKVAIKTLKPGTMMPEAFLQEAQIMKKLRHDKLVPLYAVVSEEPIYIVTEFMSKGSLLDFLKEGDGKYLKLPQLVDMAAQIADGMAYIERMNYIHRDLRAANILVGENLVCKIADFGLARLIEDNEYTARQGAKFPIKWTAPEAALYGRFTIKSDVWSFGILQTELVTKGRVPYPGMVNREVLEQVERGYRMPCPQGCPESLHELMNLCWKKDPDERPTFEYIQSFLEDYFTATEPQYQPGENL
Chain of Tyrosine-protein kinase Fyn (P06241 whole entry): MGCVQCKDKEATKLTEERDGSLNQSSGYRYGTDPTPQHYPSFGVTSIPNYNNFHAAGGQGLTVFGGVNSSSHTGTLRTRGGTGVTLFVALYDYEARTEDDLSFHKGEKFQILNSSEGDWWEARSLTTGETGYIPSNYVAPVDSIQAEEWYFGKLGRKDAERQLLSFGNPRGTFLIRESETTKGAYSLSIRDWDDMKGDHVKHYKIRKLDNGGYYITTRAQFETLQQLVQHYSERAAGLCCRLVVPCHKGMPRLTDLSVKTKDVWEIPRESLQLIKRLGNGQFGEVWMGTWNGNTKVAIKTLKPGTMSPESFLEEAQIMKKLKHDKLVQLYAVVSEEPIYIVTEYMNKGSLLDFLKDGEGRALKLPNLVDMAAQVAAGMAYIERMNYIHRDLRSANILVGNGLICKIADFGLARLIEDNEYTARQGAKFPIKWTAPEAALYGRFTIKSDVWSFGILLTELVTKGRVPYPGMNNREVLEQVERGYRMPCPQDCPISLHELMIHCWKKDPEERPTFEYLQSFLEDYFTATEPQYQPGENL

As usually defined, the Kd is the constant that tells how readily two partners part at equilibrium. In the case of `COc1ccc(-c2ccc3c(N4CCOC[C@@H]4C)nc(N4CCOC[C@@H]4C)nc3n2)cc1CO` [AZD-8055], the Kd in assay [1], in assay [2], in assay [3], in assay [4], in [5] and in [6] was > 30 µM (inactive) in each case. Moreover, the Kd (in assay [7]; on Scaffold protein ILK; in assay [8]; on ADP/ATP translocase 2) was > 30 µM (inactive) each time.

Consider `O=C(O)[C@]1(Cc2cccc(Nc3nccs3)n2)CC[C@@H](Oc2cccc(Cl)c2F)CC1` [MK-5108], for which the Kd in [1], in assay [2], in [3], in [4], in assay [5] and in assay [6] was > 30 µM (inactive) throughout. The Kd in assay [7] is > 30 µM (inactive); on Scaffold protein ILK, > 30 µM (inactive); in assay [8], 0.077 µM (active); on ADP/ATP translocase 2, > 30 µM (inactive).

As for `O=C1NC(=O)/C(=C/c2ccc3nccc(-c4ccncc4)c3c2)S1` [GSK-1059615], the Kd in assay [1], in assay [2], in assay [3], in assay [4], in assay [5] and in [6] was > 30 µM (inactive) in each case. Moreover, the Kd (in assay [7]; at Scaffold protein ILK; in [8]; on ADP/ATP translocase 2) was > 30 µM (inactive) throughout.

As for `C[C@@H](Nc1cc(F)cc(F)c1)c1cc(C(=O)N(C)C)cc2c(=O)cc(N3CCOCC3)oc12` [AZD-8186], the Kd in [1], in assay [2], in assay [3], in assay [4], in assay [5] and in assay [6] was > 30 µM (inactive) in each case. Further, the Kd (in assay [7]; on Scaffold protein ILK; in [8]; at ADP/ATP translocase 2) was > 30 µM (inactive) each time.

For the compound `Cc1cc2c(F)c(Oc3ncnn4cc(OC[C@@H](C)OC(=O)[C@H](C)N)c(C)c34)ccc2[nH]1` [BRIVANIB ALANINATE], the Kd in assay [1], in assay [2], in [3], in assay [4], in assay [5] and in assay [6] was > 30 µM (inactive) throughout. Besides, the Kd (in assay [7]; at Scaffold protein ILK; in [8]; at ADP/ATP translocase 2) was > 30 µM (inactive) each time.

In the case of `C[C@@H]1CN(Cc2ccc(F)cc2)[C@@H](C)CN1C(=O)c1cc2c(C(=O)C(=O)N(C)C)cn(C)c2cc1Cl` [TALMAPIMOD], the Kd in assay [1], in [2], in [3], in assay [4], in assay [5] and in assay [6] was > 30 µM (inactive) throughout. The Kd (in assay [7]; at Scaffold protein ILK; in assay [8]; at ADP/ATP translocase 2) was > 30 µM (inactive) each time.

Turning to `CN1CCC(COc2cnc(-c3cccc(Cn4nc(-c5cccc(C#N)c5)ccc4=O)c3)nc2)CC1` [TEPOTINIB], the Kd in assay [1], in assay [2], in [3], in assay [4], in assay [5] and in assay [6] was > 30 µM (inactive) in each case. The Kd (in [7]; on Scaffold protein ILK; in assay [8]; at ADP/ATP translocase 2) was > 30 µM (inactive) in each case.

As for `CNC(=O)c1ccc(C)c(-n2c(C)cc(OCc3ccc(F)cc3F)c(Br)c2=O)c1` [PH-797804], the Kd in assay [1], in [2], in [3], in assay [4], in assay [5] and in assay [6] was > 30 µM (inactive) throughout. In addition, the Kd (in [7]; on Scaffold protein ILK; in assay [8]; at ADP/ATP translocase 2) was > 30 µM (inactive) throughout.

Turning to `COc1cc2nccc(Oc3ccc(NC(=O)Nc4cc(C)on4)c(Cl)c3)c2cc1OC` [TIVOZANIB], the Kd in assay [1], in assay [2], in assay [3], in assay [4], in assay [5] and in assay [6] was > 30 µM (inactive) each time. Besides, the Kd in assay [7] is > 30 µM (inactive); at Scaffold protein ILK, > 30 µM (inactive); in [8], 0.302 µM (active); at ADP/ATP translocase 2, > 30 µM (inactive).

Turning to `N[C@@H]1CCCN(c2c(/C=C3\SC(=O)NC3=O)cccc2-c2ccccc2)C1`, the Kd in [1], in assay [2], in assay [3], in assay [4], in assay [5] and in assay [6] was > 30 µM (inactive) each time. Moreover, the Kd (in [7]; on Scaffold protein ILK; in assay [8]; at ADP/ATP translocase 2) was > 30 µM (inactive) in each case.

Turning to `COc1cc(N2CCC(N3CCN(C)CC3)CC2)ccc1Nc1ncnc(Nc2ccccc2S(=O)(=O)C(C)C)n1` [ASP-3026], the Kd in assay [1] is > 30 µM (inactive); in assay [2] it was 0.781 µM (active); in [3] it was > 30 µM (inactive); in [4], > 30 µM (inactive); in assay [5], > 30 µM (inactive); in [6], > 30 µM (inactive). In addition, the Kd is 1.53 µM (active) in assay [7], > 30 µM (inactive) on Scaffold protein ILK, > 30 µM (inactive) in [8] and > 30 µM (inactive) at ADP/ATP translocase 2.
